Measured values reported in article PMC12442081, “Combating Fuel Biocontamination: Tailored Antimicrobial Peptides and an Innovative Delivery Strategy” (ACS Applied Bio Materials, 2025).

What was measured:
[1] = tested on: Bacillus licheniformis (BL) ATCC 14580; format: cell-based; conditions: ATCC 14580
How it was run: (§1)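 Bacteria grown overnight at 37 °C in LB, subcultured to mid-log, then adjusted to 5 × 10^5 CFU/mL and mixed with equal volumes of serially diluted peptide. After overnight incubation at 37 °C in ambient air, MIC was the lowest concentration inhibiting growth by plate-reader measurement; mean of triplicates.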

[2] = tested on: Dermacoccus nishinomiyaensis (DN) ATCC 29093; format: cell-based
How it was run: as §1

[3] = tested on: Macrococcus caseolyticus (MC) ATCC 13548; format: cell-based
How it was run: as §1

[4] = tested on: Micrococcus yunnanensis (MY) ATCC 12698; format: cell-based
How it was run: as §1

[5] = tested on: Pseudomonas aeruginosa (PA) ATCC 39327; format: cell-based; conditions: ATCC 39327
How it was run: as §1

[6] = tested on: Sphingomonas paucimobilis (SP); format: cell-based
How it was run: as §1

[7] = tested on: BL+DN coculture; format: cell-based, B. licheniformis + D. nishinomiyaensis
Procedure: (§2) All of the bacterial species were grown overnight at 37 °C in LB broth. 10^7 CFU/mL of cells were resuspended in fresh culture and grown until the mid log phase. , The bacterial cells were adjusted to a concentration of 5 × 10^5 CFU/mL to quantify the MIC. Equal volumes of the respective bacterial cultures were incubated with the serially diluted peptides in 96-well microtiter plate and incubated overnight at 37 °C in ambient air. Microorganisms without peptides were treated as the positive control, while uninoculated broth was used as the negative control. The MIC was taken as the lowest peptide concentration at which observable bacteria growth was inhibited, as measured by a microplate reader (Biotek Synergy H1 microplate reader). Experiments were performed in triplicates, and the mean MIC values were determined. A similar study was performed to understand the effect of peptide purity, i.e., ranging from 70 to 95%, on the peptide MIC. […]
(§3) fresh medium at equal proportions (v/v). Multiple combinations of microbial cocultures were prepared […]
(§4) Table S2. Schematic representation of the microbial cocultures grown in lab.
(§5) Bacterial clusters Fungal clusters
(§6) Gram-positive Gram-negative
(§7) Actinobacteria/DN Firmicutes/BL Proteobacteria/SP Ascomycota/HR […]
(§8) (b) The three upper panels […]
(§9) controlling the growth of microbial cocultures.

[8] = tested on: SP+BL coculture; format: cell-based, S. paucimobilis + B. licheniformis
Procedure: as §2, §3, §4, §5, §6, §7, §8, §9

[9] = tested on: DN+SP coculture; format: cell-based, D. nishinomiyaensis + S. paucimobilis
Procedure: as §2, §3, §4, §5, §6, §7, §8, §9

[10] = tested on: HR+SP coculture; format: cell-based, H. resinae + S. paucimobilis
Procedure: as §2, §3, §4, §5, §6, §7, §8, §9

[11] = tested on: HR+DN coculture; format: cell-based, H. resinae + D. nishinomiyaensis
Procedure: as §2, §3, §4, §5, §6, §7, §8, §9

[12] = tested on: HR+BL coculture; format: cell-based, H. resinae + B. licheniformis
Procedure: as §2, §3, §4, §5, §6, §7, §8, §9

[13] = tested on: HR+BL+SP coculture; format: cell-based, H. resinae + B. licheniformis + S. paucimobilis
Procedure: as §2, §3, §4, §5, §6, §7, §8, §9

[14] = tested on: HR+BL+DN coculture; format: cell-based, H. resinae + B. licheniformis + D. nishinomiyaensis
Procedure: as §2, §3, §4, §5, §6, §7, §8, §9

[15] = tested on: HR+DN+SP coculture; format: cell-based, H. resinae + D. nishinomiyaensis + S. paucimobilis
Procedure: as §2, §3, §4, §5, §6, §7, §8, §9

[16] = tested on: B. licheniformis; format: cell-based, Bacillus licheniformis; conditions: 2 h
Procedure: (§10) The stability of the peptides against one Gram-positive (B. licheniformis) and Gram-negative (S. paucimobilis) bacteria was assessed by determining their MIC in chymotrypsin (protease), serum, and salt (NaCl). The experiments were adopted from Selvarajan et.al. The fold change in MIC with respect to the control was calculated and determined for each peptide against the microbial clusters.
(§11) To determine the susceptibility of the engineered peptides, which are abundant in Trp, to protease degradation, chymotrypsin, which cleaves Tyr, Phe, and Trp at physiological pH was chosen as the model protease. The protocol described by Wang et.al. (2014) was used with slight modifications. Peptides were incubated with chymotrypsin at a molar ratio of 40:1 (peptide: protease) in 10 mM PBS buffer (pH7.4) at 37 °C, and samples were analyzed after 2 h. The enzyme reaction was terminated by incubating the samples at 80 °C for 10 min. The incubated peptide mixtures were then serially diluted in 96-well plates to determine the MIC values of the microbial strains.
(§12) The stability of the peptides in the presence of the serum was tested using a 10% fetal bovine serum (heat inactivated).
(§13) We also studied the effects of 600 mM NaCl (in vitro) and natural seawater (NSW) on the MICs of the engineered peptides.

[17] = tested on: S. paucimobilis; format: cell-based, Sphingomonas paucimobilis; conditions: 2 h
Procedure: as §10, §11, §12, §13

[18] = tested on: Kocuria rosea (KR) ATCC 186; format: cell-based
How it was run: as §1

[19] = tested on: Hormoconis resinae (HR) ATCC 20267; format: cell-based
Procedure: All of the bacterial species were grown overnight at 37 °C in LB broth. 10^7 CFU/mL of cells were resuspended in fresh culture and grown until the mid log phase. , The bacterial cells were adjusted to a concentration of 5 × 10^5 CFU/mL to quantify the MIC. Equal volumes of the respective bacterial cultures were incubated with the serially diluted peptides in 96-well microtiter plate and incubated overnight at 37 °C in ambient air. Microorganisms without peptides were treated as the positive control, while uninoculated broth was used as the negative control. The MIC was taken as the lowest peptide concentration at which observable bacteria growth was inhibited, as measured by a microplate reader (Biotek Synergy H1 microplate reader). Experiments were performed in triplicates, and the mean MIC values were determined. A similar study was performed to understand the effect of peptide purity, i.e., ranging from 70 to 95%, on the peptide MIC.
The same experimental procedures that were conducted for the antibacterial assay were used to determine the MIC of the peptides against the fungal strain, H. resinae.

[20] = tested on: Roseomonas mucosa (RM) ATCC BAA-692; format: cell-based
How it was run: as §1

Row | Compound | MIC [1] [µM] | MIC [2] [µM] | MIC [3] [µM] | MIC [4] [µM] | MIC [5] [µM] | MIC [6] [µM] | MIC [7] [µM] | MIC [8] [µM] | MIC [9] [µM] | MIC [10] [µM] | MIC [11] [µM] | MIC [12] [µM] | MIC [13] [µM] | MIC [14] [µM] | MIC [15] [µM] | MIC under different treatments [16] [µM] | MIC under different treatments [17] [µM] | MIC [18] [µM] | MIC [19] [µM] | MIC [20] [µM]
1 | CC[C@H](C)[C@H](N)C(=O)N[C@@H](CC(C)C)C(=O)N1CCC[C@H]1C(=O)N[C@@H](Cc1ccccc1)C(=O)N[C@@H](CCCCN)C(=O)N[C@@H](Cc1c[nH]c2ccccc12)C(=O)N1CCC[C@H]1C(=O)N[C@@H](Cc1c[nH]c2ccccc12)C(=O)N[C@@H](Cc1c[nH]c2ccccc12)C(=O)N1CCC[C@H]1C(=O)N[C@@H](Cc1c[nH]c2ccccc12)C(=O)N[C@@H](CCCNC(=N)N)C(=O)N[C@@H](CCCNC(=N)N)C(=O)O [P11] | 1.9 | 0.9 | 0.9 | 0.9 | 1.9 | 1.9 | 60 | 120 | 30 | 30 | 1.87 | 3.7 | 1.87 | 1.87 | 3.7 | ≤ 4 | ≤ 4 | – | – | –
2 | CC[C@H](C)[C@H](N)C(=O)N[C@@H](CC(C)C)C(=O)N[C@@H](Cc1ccc(O)cc1)C(=O)N[C@@H](Cc1c[nH]c2ccccc12)C(=O)N[C@@H](CCCCN)C(=O)N[C@@H](Cc1c[nH]c2ccccc12)C(=O)N1CCC[C@H]1C(=O)N[C@@H](Cc1c[nH]c2ccccc12)C(=O)N[C@@H](Cc1c[nH]c2ccccc12)C(=O)N1CCC[C@H]1C(=O)N[C@@H](Cc1c[nH]c2ccccc12)C(=O)N[C@@H](CCCNC(=N)N)C(=O)N[C@@H](CCCNC(=N)N)C(=O)O [P17] | 0.9 | 0.9 | 1.9 | 0.9 | 3.8 | 0.9 | 1.87 | 7.5 | 15 | 7.5 | 0.9 | 7.5 | 0.9 | 0.9 | 7.5 | ≤ 4 | ≤ 4 | 1.9 | 3.8 | –
3 | CC[C@H](C)[C@H](N)C(=O)N[C@@H](CC(C)C)C(=O)N1CCC[C@H]1C(=O)N[C@@H](Cc1c[nH]c2ccccc12)C(=O)N[C@@H](CCCCN)C(=O)N[C@@H](Cc1c[nH]c2ccccc12)C(=O)N1CCC[C@H]1C(=O)N[C@@H](Cc1c[nH]c2ccccc12)C(=O)N[C@@H](Cc1c[nH]c2ccccc12)C(=O)N1CCC[C@H]1C(=O)N[C@@H](Cc1c[nH]c2ccccc12)C(=O)N[C@@H](CCCCN)C(=O)N[C@@H](CCCNC(=N)N)C(=O)O [P3] | 1.9 | – | – | – | – | 1.9 | 30 | 1.87 | 3.7 | 0.9 | 0.9 | 0.9 | 3.7 | 7.5 | 15 | ≤ 4 | ≤ 4 | – | – | 1.9
